PMC3770053 (Biochemistry, 2013)

How the values were obtained:
Assay in all cases: stopped-flow fluorescence titration, T
Format in all cases: binding
[1] = biological target: Pol I(KF) (Klenow fragment of E. coli DNA polymerase I), N-His6/D424A/L744C/C907S, termed WT (Escherichia coli, UniProt P00582, C907S/D424A/L744C/Y766A)
[2] = biological target: Pol I(KF) (Klenow fragment of E. coli DNA polymerase I), N-His6/D424A/L744C/C907S, termed WT (Escherichia coli, UniProt P00582, C907S/D424A/L744C/Y766F)
[3] = biological target: Pol I(KF) (Klenow fragment of E. coli DNA polymerase I), N-His6/D424A/L744C/C907S, termed WT (Escherichia coli, UniProt P00582, C907S/D424A/E710A/L744C)
[4] = biological target: Pol I(KF) (Klenow fragment of E. coli DNA polymerase I), N-His6/D424A/L744C/C907S, termed WT (Escherichia coli, UniProt P00582, C907S/D424A/E710Q/L744C)
[5] = biological target: Pol I(KF) (Klenow fragment of E. coli DNA polymerase I), N-His6/D424A/L744C/C907S, termed WT (Escherichia coli, UniProt P00582, C907S/D424A/L744C)

## Nc1nc2c(ncn2[C@H]2C[C@H](O)[C@@H](COP(=O)(O)OP(=O)(O)OP(=O)(O)O)O2)c(=O)[nH]1 [dGTP]
[1]
  Kd: 2.9 ± 2 µM
[2]
  Kd: 5.9 ± 2.4 µM
[3]
  Kd: 46 ± 13 µM
[4]
  Kd: 10 ± 1 µM

## Nc1nc2c(ncn2[C@@H]2O[C@H](COP(=O)(O)OP(=O)(O)OP(=O)(O)O)[C@@H](O)[C@H]2O)c(=O)[nH]1 [rGTP]
[5]
  Kd: 41 µM
[1]
  Kd: 13 µM
[2]
  Kd: 68 µM
